Legend:
[1] = system: natural PGN-dependent PO activity in the hemolymph of Tenebrio molitor larvae; assay: Inhibition of natural PGN-dependent PO activity by synthetic PGN; format: biochemical
Procedure: (§1) PO activity was assayed according to a Pye-spectrophotometric method using a substrate solution (4-methylcatechol, and 4-hydroxyproline ethylester in HCl). 4-methylcatechol was oxidized to quinone by PO, which was then converted through a non-enzymatic reaction with 4-hydroxyproline ethylester in HCl to 4-(4′-hydroxyl-2′-carbethoxy-1′-pyrroline)-5-methyl-o-benzoquinone, a stable compound having maximum absorbance at 520 nm (see FIG. 2)
Each of 10 μl (1 μg) of a 10% β-1,3-glucan solution, 10 μl. (1 μg) of a 10% S. aureus PGN solution, 10 μl (10 ng) of a 10% M. luteus PGN solution, and 10 μl (1 μg) of a 10% synthetic PGN (for each of the compounds of Formulae 1-4) solution was incubated together with 30 μl (protein 350 μg) of the hemolymph of Tenebrio molitor larvae at 30° C. for 5 minutes. Then, 4 μl of 4-methylcatechol (250 mM), 16 μl of 4-hydroxyproline ethylester (62.5 mM) in HCl, and 5 μl of 1M CaCl2 (10 mM) were added thereto. […] The reaction mixture was incubated at 30° C. and the absorbance of the reaction solution was measured at 520 nm (see FIG. 3).
Meanwhile, PO activity was also measured in the presence of 1 μg of S. aureus PGN and 1 μg of each of the synthetic PGNs.
Furthermore, PO activity was also measured in the presence of 1 μg of S. aureus PGN with an incremental addition of the synthetic PGN of Formula 3 (0.2, 0.4, 0.8, and 1.5 μg).

[2] = system: amidase activity; assay: Amidase activity assay with Boc-Phe-Ser-Arg-MCA substrate; format: biochemical, Tenebrio molitor; settings: S. aureus PGN 1 μg plus synthetic PGN, 40 μM Boc-Phe-Ser-Arg-MCA, 30° C., fluorescence 380/460 nm; FIG. 6
Procedure: 10 μl of a 10% gram-positive S. aureus PGN (final concentration: 1 μg) solution and 10 μl of a 10% synthetic PGN (the compound 35 of Formula 3) solution were incubated in the presence of 40 μM trypsin MCA (t-butyloxycarbonyl-benzyl-L-phenylalanyl-L-seryl-L-arginine-4-methylcoumaryl-7-amide; Boc-Phe-Ser-Arg-MCA) as a substrate at 30° C., and fluorescence was measured at 380 nm (excitation wavelength) and 460 nm (emission wavelength) using a fluorescence spectrophotometer (model UV-160A, Shimadzu).

[3] = system: PGN-dependent pro-PO cascade in the hemolymph of Tenebrio molitor larvae; assay: PO activity assay (Pye-spectrophotometric method): effect of natural or synthetic PGN on PO activation; format: biochemical; settings: 30 μl hemolymph (protein 350 μg), 1 μg test substance (10 ng M. luteus PGN), 30° C.; FIG. 3
Procedure: as §1
Each of 10 μl (1 μg) of a 10% β-1,3-glucan solution, 10 μl. (1 μg) of a 10% S. aureus PGN solution, 10 μl (10 ng) of a 10% M. luteus PGN solution, and 10 μl (1 μg) of a 10% synthetic PGN (for each of the compounds of Formulae 1-4) solution was incubated together with 30 μl (protein 350 μg) of the hemolymph of Tenebrio molitor larvae at 30° C. for 5 minutes. Then, 4 μl of 4-methylcatechol (250 mM), 16 μl of 4-hydroxyproline ethylester (62.5 mM) in HCl, and 5 μl of 1M CaCl2 (10 mM) were added thereto. Then, 20 mM Tris-HCl (pH 8.0) was added to a final volume of 500 μl. The reaction mixture was incubated at 30° C. and the absorbance of the reaction solution was measured at 520 nm (see FIG. 3).

Tetrasaccharide Tetrapeptide [compound 35]
inhibition of PO activity with incremental addition of synthetic PGN ([1]; 1 μg of S. aureus PGN plus 0.2, 0.4, 0.8 and 1.5 μg synthetic PGN, FIG. 5): inhibited in a synthetic PGN concentration-dependent manner
inhibition of PGN-dependent PO activity ([1]; in the presence of 1 μg of S. aureus PGN and 1 μg of each synthetic PGN, FIG. 4): strongest competitive inhibitor
inhibition of amidase activity [2]: same inhibition pattern as the PO activity

β-1,3-glucan
activation of the PGN-dependent pro-PO cascade (PO activity, absorbance at 520 nm) [3]: activated

From US7915383B2, “Method of separating a peptidoglycan recognition protein from a hemolymph Tenebrio molitor larvae” (Yuhan Corporation, priority 2006, dated 2011)
